# Laboratory results from patent US20130096166A1 (Clark Atlanta University, priority 2011, published 2013).
# What was measured:
# C4-2 cells [1] = test: Detection of reactive oxygen species (H2DCFDA oxidation); format: cell-based, human
# Method: (§1) Cells were plated at a density of 1×10^4 cells well in 96-well black clear bottom plates and left to attach overnight. Baseline ROS levels were assessed in untreated ARCaP Neo, […], and C4-2 cells. Prior to treatment, […] C4-2 cells were starved in serum-free and phenol red free RPMI. […] Procedures were performed following manufacturer's protocol (Molecular Probes®, Invitrogen) with slight modifications. Briefly, cells were loaded with 10 μM (final working concentration) of H2DCFDA in pre-warmed Hanks Balance Salt solution (HBSS) for 45 minutes. This was replaced with experimental media with various treatments as well as untreated controls, for 3 days. H2DCFDA oxidation was measured on a spectrofluorometer (BIOTek Synergy HT, BIOTeK Instruments Inc., Vt.) with excitation […] and emission 528 nm at desired increments.
# ARCaP Snail cells [2] = test: as above; format: cell-based, human
# Method: as §1
# Snail = test: Western blot analysis of Snail protein expression; format: cell-based, human; details: 3 days
# cleaved PARP = test: Western blot analysis of cleaved PARP protein expression; format: cell-based, human; details: for effect on camalexin-mediated PARP cleavage: H2O2 with camalexin
# [3] = system: caspase-3/7 activity in ARCaP Snail cells; test: FACS analysis of caspase-3/7 activity (Dual Sensor Mitocasp assay); format: cell-based, human; details: 3 days
# Method: Caspases are generally accepted as the executioners of apoptosis. […] Stained cells were evaluated in an Accuri® C6 Flow Cytometer (Accuri Cytometers Inc., Ann Arbor, Mich.) and analyzed using FlowJo software.
# Trypanosoma cruzi = details: cited from earlier work
# caspase-3 = test: Western blot analysis of total caspase-3 protein expression; format: cell-based, human
# Jurkat T-leukemia cells = details: by increasing ROS and activation of caspases; cited from earlier work
# C4-2 cells [4] = test: Cell viability assay (CellTiter 96 AQueous One, MTS); format: cell-based, human
# Method: (§2) PrEC, ARCaP Neo, ARCaP Snail, LNCaP, and C4-2 cells were plated at a density of 2,000 cells per well in 96-well plates and allowed to attach overnight.
# LNCaP cells = test: as above; format: cell-based, human
# Method: as §2
# ARCaP Neo cells = test: as above; format: cell-based, human
# Method: as §2
# ARCaP Snail cells [5] = test: as above; format: cell-based, human
# Method: as §2
# [6] = as above; format: cell-based, human; details: human, ARCaP Neo cells, 3 days, 50 μM H2O2, read-out: decrease in cell viability
# Method: as §2
# [7] = ARCaP Neo cells, 10, 25 and 50 μM
# [8] = 10 mM NAC added to 25 or 50 μM camalexin
smiles,measurement,setting,value
"c1ccc2c(-c3nccs3)c[nH]c2c1 [camalexin, 3-thiazol-2′yl-indole]","ROS, of untreated controls",C4-2 cells [1]; 25 μM camalexin,approximately 130±5%
same,"ROS, of untreated controls",C4-2 cells [1]; 50 μM camalexin,~150±5%
same,"ROS, as compared to untreated controls",ARCaP Snail cells [2]; 25 μM camalexin,approximately 210%
same,"ROS, as compared to untreated controls",ARCaP Snail cells [2]; 50 μM camalexin,~350±25%
same,Snail protein expression,Snail; [7],no detectable levels of Snail protein expression
same,Snail protein expression,"Snail; ARCaP Snail cells, 10, 25 and 50 μM",not affected by camalexin treatments
same,Snail protein expression,"Snail; C4-2 cells, 10, 25 and 50 μM",did not affect Snail expression
same,Snail protein expression,"Snail; LNCaP cells, 10 μM",moderate expressing band for Snail protein
same,cleaved PARP protein expression,cleaved PARP; [7],very low levels of cleaved PARP protein expression
same,cleaved PARP protein expression,"cleaved PARP; ARCaP Snail cells, 10, 25 and 50 μM vs untreated control",marked increase in levels of cleaved PARP protein expression
same,PARP protein cleavage,"cleaved PARP; C4-2 cells, all 3 camalexin treatments, vs LNCaP cells",marked increase in PARP protein cleavage
same,fraction of cells with increased caspase-3/7 activity,"[3]; 25 μM camalexin, untreated control 21.7%",34.2%
same,cytostatic/cytotoxic effects,Trypanosoma cruzi,cytostatic/cytotoxic effects
same,total caspase-3 protein levels,"caspase-3; ARCaP Neo cells, 3 days",not in the less aggressive ARCaP Neo or LNCaP cells
same,total caspase-3 protein levels,"caspase-3; ARCaP Snail cells, 3 days (p<0.01 at 50 μM)",induced an increase in total caspase-3 protein levels
same,total caspase-3 protein levels,"caspase-3; C4-2 cells, 3 days",induced an increase in total caspase-3 protein levels
same,total caspase-3 protein levels,"caspase-3; LNCaP cells, 10 μM, 3 days",significant decrease in protein expression
same,total caspase-3 protein levels,"caspase-3; LNCaP cells, 3 days",not in the less aggressive ARCaP Neo or LNCaP cells
same,apoptosis,Jurkat T-leukemia cells,induced apoptosis
same,cell viability,"C4-2 cells [4]; C4-2, day 0",viability was unaffected
same,decrease in cell viability,"C4-2 cells [4]; C4-2, day 3, 10 μM",approximately 40±5%
same,decrease in cell viability,"C4-2 cells [4]; C4-2, day 3, 25 μM",approximately 40±5%
same,decrease in cell viability,"C4-2 cells [4]; C4-2, day 3, 50 μM",approximately 40±5%
same,cell viability,LNCaP cells; day 0,viability was unaffected
same,decrease in cell viability,"LNCaP cells; day 3, 50 μM",approximately 40±2%
same,cell viability,ARCaP Neo cells; day 0,no change in viability
same,cell viability,"ARCaP Neo cells; day 3, 10, 25 and 50 μM",remained unaffected
same,cell viability,ARCaP Snail cells [5]; day 0,no change in viability
same,decrease in cell viability,"ARCaP Snail cells [5]; day 3, 10 μM",approximately 25%
same,decrease in cell viability,"ARCaP Snail cells [5]; day 3, 25 μM",~35%
same,decrease in cell viability,"ARCaP Snail cells [5]; day 3, 50 μM",~35%
"CC(=O)N[C@@H](CS)C(=O)O [NAC, N-acetyl cysteine, reference compound]",effect on camalexin-mediated ROS,C4-2 cells [1]; [8],significantly decreased camalexin-mediated ROS
same,effect on camalexin-mediated ROS,ARCaP Snail cells [2]; [8],abrogated by NAC
same,effect on camalexin-increased cleaved PARP protein expression,"cleaved PARP; ARCaP Snail cells, co-treatment with NAC",could be inhibited by co-treatment with NAC
same,effect on camalexin-induced increase in caspase-3/7 activity,[3]; 25 μM camalexin plus 10 mM NAC,abrogated the percent increase in caspase-3/7 activity
same,increased viability vs. 25 μM camalexin-only treatment,"ARCaP Snail cells [5]; 3 days, 25 μM camalexin with 10 mM NAC, not statistically significant",approximately 15%
"OO [H2O2, Hydrogen peroxide, reference compound]",ROS in cells,C4-2 cells [1]; 100 μM H2O2 positive control,significantly increased ROS
same,effect on camalexin-mediated PARP cleavage,cleaved PARP; ARCaP Neo cells,potentiated camalexin-mediated PARP cleavage
same,effect on camalexin-mediated PARP cleavage,cleaved PARP; LNCaP cells,potentiated camalexin-mediated PARP cleavage
same,"cytotoxicity at 3 days, 50 μM",[6],~50%
